Where two headings read alike, the source gives them in different places.
Tests used:
[1] = molecular target: T1, FKBP52 (Homo sapiens, UniProt Q02790); assay: FP assay, binding to human FKBPs (Table 1); settings: fluorescence polarization assay
T1 sequence (Q02790 1-459): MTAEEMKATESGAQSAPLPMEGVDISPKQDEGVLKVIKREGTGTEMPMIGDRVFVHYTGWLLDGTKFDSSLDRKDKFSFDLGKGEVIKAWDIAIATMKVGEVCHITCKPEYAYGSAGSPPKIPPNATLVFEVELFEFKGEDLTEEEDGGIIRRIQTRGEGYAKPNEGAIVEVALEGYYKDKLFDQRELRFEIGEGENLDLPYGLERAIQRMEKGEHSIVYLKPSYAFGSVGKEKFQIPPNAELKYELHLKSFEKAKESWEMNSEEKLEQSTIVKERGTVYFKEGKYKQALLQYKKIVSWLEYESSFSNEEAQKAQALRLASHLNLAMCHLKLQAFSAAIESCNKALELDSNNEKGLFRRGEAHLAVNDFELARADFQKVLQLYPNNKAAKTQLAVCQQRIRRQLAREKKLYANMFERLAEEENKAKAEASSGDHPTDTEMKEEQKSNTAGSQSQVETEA

[2] = molecular target: FKBP12.6 (Homo sapiens, UniProt P68106); assay: FP assay, binding to human FKBPs (Table 1); settings: fluorescence polarization assay
FKBP12.6, sequence (P68106 whole entry): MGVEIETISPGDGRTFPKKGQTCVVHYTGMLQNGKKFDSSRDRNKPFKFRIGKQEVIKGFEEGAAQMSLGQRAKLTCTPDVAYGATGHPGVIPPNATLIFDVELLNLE

[3] = molecular target: FKBP12 (Homo sapiens, UniProt P62942); assay: FP assay, binding to human FKBPs (Table 1); settings: fluorescence polarization assay
FKBP12, sequence (P62942 whole entry): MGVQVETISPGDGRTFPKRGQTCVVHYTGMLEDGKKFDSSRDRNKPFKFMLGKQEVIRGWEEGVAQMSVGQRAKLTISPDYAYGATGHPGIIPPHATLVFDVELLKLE

[4] = molecular target: LpMip (Legionella pneumophila subsp. pneumophila, UniProt Q5ZXE0); assay: biochemical; type: binding
LpMip, sequence (Q5ZXE0 21-233 limits assumed): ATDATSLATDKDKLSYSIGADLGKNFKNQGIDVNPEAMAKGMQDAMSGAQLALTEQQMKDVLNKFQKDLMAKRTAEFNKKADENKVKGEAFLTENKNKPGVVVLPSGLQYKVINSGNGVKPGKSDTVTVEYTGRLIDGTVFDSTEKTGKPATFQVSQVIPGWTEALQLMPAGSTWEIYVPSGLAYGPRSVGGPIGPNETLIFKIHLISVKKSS

[5] = molecular target: T2, FKBP51 (Homo sapiens, UniProt Q13451); assay: FP assay, binding to human FKBPs (Table 1); settings: fluorescence polarization assay
T2 sequence (Q13451 1-457): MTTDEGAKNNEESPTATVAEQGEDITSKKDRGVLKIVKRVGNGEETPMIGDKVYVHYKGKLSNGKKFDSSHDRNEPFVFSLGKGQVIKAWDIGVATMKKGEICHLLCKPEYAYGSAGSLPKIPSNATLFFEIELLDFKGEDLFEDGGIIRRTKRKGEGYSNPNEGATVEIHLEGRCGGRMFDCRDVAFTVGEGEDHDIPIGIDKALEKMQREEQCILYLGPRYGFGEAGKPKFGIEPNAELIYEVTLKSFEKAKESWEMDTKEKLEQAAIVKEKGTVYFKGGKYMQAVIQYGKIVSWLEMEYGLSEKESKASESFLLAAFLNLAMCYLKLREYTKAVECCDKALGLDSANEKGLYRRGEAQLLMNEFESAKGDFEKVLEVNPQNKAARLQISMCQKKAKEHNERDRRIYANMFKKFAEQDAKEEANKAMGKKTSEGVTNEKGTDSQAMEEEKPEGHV

SMILES	Ki [1] [nM]	Ki [2] [nM]	Ki [3] [nM]	Ki ([4]; read-out: Ki LpMip) [nM]	Ki [5] [nM]	Ki [4] [nM]
CC[C@H]1CN(Cc2ccccn2)C(=O)[C@@H]2CCC[C@H]1N2S(=O)(=O)c1ccc2ncsc2c1 [26a]	285	5.2	6.5	5150	410	
C=C[C@H]1CN(CCOC)C(=O)[C@@H]2CCC[C@H]1N2S(=O)(=O)c1cc(Cl)cc(Cl)c1 [22a]	377		59		529	
C=C[C@H]1CN([C@@H](C)COCc2ccccc2)C(=O)[C@@H]2CCC[C@H]1N2S(=O)(=O)c1ccc2ncsc2c1 [16a, (1S,5S,6R)-10-(benzo[d]thiazol-6-ylsulfonyl)-3-((S)-1-(benzyloxy)propan-2-yl)-5-vinyl-3,10-diazabicyclo[4.3.1]decan-2-one]	316		28		263	
C=C[C@H]1CN([C@@H](C)c2ccccn2)C(=O)[C@@H]2CCC[C@H]1N2S(=O)(=O)c1ccc2ncsc2c1 [7d, (1S,5S,6R)-10-(benzo[d]thiazol-6-ylsulfonyl)-3-((S)-1-(pyridin-2-yl)ethyl)-5-vinyl-3,10-diazabicyclo[4.3.1]decan-2-one]	29	0.9	2.2		33	366
C=C[C@H]1CN([C@H](C)C(=O)O)C(=O)[C@@H]2CCC[C@H]1N2S(=O)(=O)c1cc(Cl)cc(Cl)c1 [21c]	296		48		123	
C=C[C@H]1CN([C@@H](C)c2cn(-c3ccc(OC)cc3)nn2)C(=O)[C@@H]2CCC[C@H]1N2S(=O)(=O)c1cc(Cl)cc(Cl)c1 [19b, (1S,5S,6R)-10-((3,5-dichlorophenyl)sulfonyl)-3-((S)-1-(1-(4-methoxyphenyl)-1H-1,2,3-triazol-4-yl)ethyl)-5-vinyl-3,10-diazabicyclo[4.3.1]decan-2-one]	91	16	4.3			
COC[C@H]1CN(Cc2ccccn2)C(=O)[C@@H]2CCC[C@H]1N2S(=O)(=O)c1cc(Cl)cc(Cl)c1 [24a]	11	3.4	0.65	497	12	
C=C[C@H]1CN([C@@H](C)C(=O)O)C(=O)[C@@H]2CCC[C@H]1N2S(=O)(=O)c1cc(Cl)cc(Cl)c1 [21b, (2S)-2-((1S,5S,6R)-10-((3,5-dichlorophenyl)sulfonyl)-2-oxo-5-vinyl-3,10-diazabicyclo[4.3.1]decan-3-yl)propanoic acid]	80		13		22	284
C[C@@H](c1ccccn1)N1C[C@H](CO)[C@H]2CCC[C@@H](C1=O)N2S(=O)(=O)c1cc(Cl)cc(Cl)c1 [23b, (1S,5S,6R)-10-((3,5-dichlorophenyl)sulfonyl)-5-(hydroxymethyl)-3-((S)-1-(pyridin-2-yl)ethyl)-3,10-diazabicyclo[4.3.1]decan-2-one]	1.2	0.31	0.06		1.9	36
CC[C@H]1CN([C@@H](C)c2ccccn2)C(=O)[C@@H]2CCC[C@H]1N2S(=O)(=O)c1ccc2ncsc2c1 [26b, (1S,5S,6R)-10-(benzo[d]thiazol-6-ylsulfonyl)-5-ethyl-3-((S)-1-(pyridin-2-yl)ethyl)-3,10-diazabicyclo[4.3.1]decan-2-one]	22	0.6	1.9		27	284
C=C[C@H]1CN(CCO)C(=O)[C@@H]2CCC[C@H]1N2S(=O)(=O)c1cc(Cl)cc(Cl)c1 [20a]	387		20		403	
O=C1[C@@H]2CCC[C@H]([C@@H](CO)CN1Cc1ccccn1)N2S(=O)(=O)c1ccc2ncsc2c1 [25a]	190	3.8	5.5	3980	283	
C=C[C@H]1CN([C@@H](C)COC)C(=O)[C@@H]2CCC[C@H]1N2S(=O)(=O)c1cc(Cl)cc(Cl)c1 [22b, (1S,5S,6R)-10-((3,5-dichlorophenyl)sulfonyl)-3-((S)-1-methoxypropan-2-yl)-5-vinyl-3,10-diazabicyclo[4.3.1]decan-2-one]	205		14		204	
C=C[C@H]1CN(Cc2ccccn2)C(=O)[C@@H]2CCC[C@H]1N2S(=O)(=O)c1cc(Cl)cc(Cl)c1 [6a]	54	17	1.3	1350	119	
C=C[C@H]1CN([C@H](C)CO)C(=O)[C@@H]2CCC[C@H]1N2S(=O)(=O)c1ccc2ncsc2c1 [17b]	> 5000		> 5000		> 5000	
C=C[C@H]1CN(Cc2ccccn2)C(=O)[C@@H]2CCC[C@H]1N2S(=O)(=O)c1ccc2ncsc2c1 [7a]	276	6	7.5	5840	294	
C=C[C@H]1CN([C@@H](C)COCc2ccccc2)C(=O)[C@@H]2CCC[C@H]1N2S(=O)(=O)c1cc(Cl)cc(Cl)c1 [15a, (1S,5S,6R)-3-((S)-1-(benzyloxy)propan-2-yl)-10-((3,5-dichlorophenyl)sulfonyl)-5-vinyl-3,10-diazabicyclo[4.3.1]decan-2-one]	1030		58		1080	
O=C1[C@@H]2CCC[C@H]([C@@H](CO)CN1Cc1ccccn1)N2S(=O)(=O)c1cc(Cl)cc(Cl)c1 [23a]	19	3.4	0.35	467	33	
C=C[C@H]1CN([C@H](C)c2ccccn2)C(=O)[C@@H]2CCC[C@H]1N2S(=O)(=O)c1ccc2ncsc2c1 [7e]	3450	157	240		4550	
C=C[C@H]1CN([C@H](C)COC)C(=O)[C@@H]2CCC[C@H]1N2S(=O)(=O)c1cc(Cl)cc(Cl)c1 [22c]	> 5000		> 5000		> 5000	
C=C[C@H]1CN([C@@H](C)CO)C(=O)[C@@H]2CCC[C@H]1N2S(=O)(=O)c1cc(Cl)cc(Cl)c1 [20b, (1S,5S,6R)-10-((3,5-dichlorophenyl)sulfonyl)-3-((S)-1-hydroxypropan-2-yl)-5-vinyl-3,10-diazabicyclo[4.3.1]decan-2-one]	116		3.5		107	
C=C[C@H]1CN([C@H](C)CO)C(=O)[C@@H]2CCC[C@H]1N2S(=O)(=O)c1cc(Cl)cc(Cl)c1 [20c]	> 5000		> 5000		> 5000	
C=C[C@H]1CN([C@H](C)c2ccccn2)C(=O)[C@@H]2CCC[C@H]1N2S(=O)(=O)c1cc(Cl)cc(Cl)c1 [6e]	> 1000	812	130		> 1000	
C=C[C@H]1CN(Cc2cn(-c3ccc(OC)cc3)nn2)C(=O)[C@@H]2CCC[C@H]1N2S(=O)(=O)c1cc(Cl)cc(Cl)c1 [19a]	361	16	15			
C=C[C@H]1CN(CC(=O)O)C(=O)[C@@H]2CCC[C@H]1N2S(=O)(=O)c1cc(Cl)cc(Cl)c1 [21a]	320		33.4	5150	172	
C=C[C@H]1CN([C@H](C)COCc2ccccc2)C(=O)[C@@H]2CCC[C@H]1N2S(=O)(=O)c1ccc2ncsc2c1 [16b]	> 5000		> 5000		> 5000	
C=C[C@H]1CN([C@@H](C)CO)C(=O)[C@@H]2CCC[C@H]1N2S(=O)(=O)c1ccc2ncsc2c1 [17a, (1S,5S,6R)-10-(benzo[d]thiazol-6-ylsulfonyl)-3-((S)-1-hydroxypropan-2-yl)-5-vinyl-3,10-diazabicyclo[4.3.1]decan-2-one]	102		21		110	
C=C[C@H]1CN([C@H](C)COCc2ccccc2)C(=O)[C@@H]2CCC[C@H]1N2S(=O)(=O)c1cc(Cl)cc(Cl)c1 [15b]	> 5000		> 5000		> 5000	
C=C[C@H]1CN([C@H](C)c2cn(-c3ccc(OC)cc3)nn2)C(=O)[C@@H]2CCC[C@H]1N2S(=O)(=O)c1cc(Cl)cc(Cl)c1 [19c]	1030	390	233			
C[C@@H](c1ccccn1)N1C[C@H](CO)[C@H]2CCC[C@@H](C1=O)N2S(=O)(=O)c1ccc2ncsc2c1 [25b, (1S,5S,6R)-10-(benzo[d]thiazol-6-ylsulfonyl)-5-(hydroxymethyl)-3-((S)-1-(pyridin-2-yl)ethyl)-3,10-diazabicyclo[4.3.1]decan-2-one]		0.7	1.5			237
